Test results: patent US20150291517A1, “BENZENESULFONAMIDE COMPOUNDS FOR SOMATIC EMBRYOGENESIS IN PLANTS” (priority 2012, published 2015)

How the values were obtained:
Assay type in all cases: in vivo, Arabidopsis thaliana
Arabidopsis seedlings [1] = assay: Somatic embryogenesis from germinated Arabidopsis seeds in liquid medium with 1 μM 2,4-D (containers)
Text: The chemical screen was based on a modified version of an Arabidopsis somatic embryogenesis protocol that uses germinated seeds as explants (see Kobayashi et al., 2010 Kobayashi T, Nagayama Y, Higashi K and Kobayashi M. (2010). Establishment of a tissue culture system for somatic embryogenesis from germinating embryos of Arabidopsis thaliana Plant Biotech. 27: 359-364). In the original protocol, seeds were germinated on solid medium for one day, then the embryos were removed from the seed coat and transferred to solid media containing 4.5 μM 2,4-D to stimulate somatic embryo development. In this example, the protocol is simplified by germinating and culturing the seeds continuously in liquid medium containing 1 μM 2,4-D. Under optimized culture conditions (circa 30 seeds in 30 ml medium in 100 ml containers) approximately 18% of Col0 seeds form somatic embryos.
Approximately 10 surface-sterilized Columbia (Col-0) seeds were added to each well. The seeds were stratified at 4° C. in the dark for two days and then grown in on a rotary shaker (100 rpm/min) on a 16 h/8 h day/night cycle at 25° C. The number of seedlings that formed somatic embryos was counted two weeks later. Candidate compounds identified in the first screen were reordered (Chembridge or Maybridge), and re-tested in a second screen under the same conditions as the primary screen, but with a larger sample number (one 96-well microtitre plate/compound). Positive compounds were analysed using ChemMine (http//bioweb.ucr.edu/ChemMineV2/), ChemSpider (http//www.chemsider.com/) and the ZINC database (http://zinc.docking.org) for analogues with a known biological function.
All subsequent experiments were performed under the conditions described above, but using 100 ml containers (Greiner) containing 30 ml of medium media using approximately 30 seeds/container. All hormones were ordered from Duchefa and Dicamba from Sigma-Aldrich.

germinating seeds = assay: Developmental competence: C#3 added at different time points after start of culture
Protocol: The competence of an explant for in vitro regeneration is determined for a large part by its developmental state. The developmental competence of germinating seedlings to respond to C#3 was examined by adding C#3 at different time points after the start of culture. Seeds were stratified at 4° C. in media containing 1 μM 2,4-D. 25 μM C#3 or the equivalent volume of DMSO (control) was added to the media at different time points after the cultures were transferred to 25° C. The number of seedlings with somatic embryos was determined after two weeks of culture.

Arabidopsis seedlings [2] = assay: Time course of somatic embryo development, morphology and ENOD4L::GFP / LEC1::LEC1:GFP embryo markers
Protocol: The effect of the compounds on seedlings, without 2,4-D, was tested by germinating seedlings on MS10 solidified with 1% agar, and supplemented with 25 μM compound or DMSO. The ENOD4L promoter comprises a 1035 bp promoter from Brassica napus (AB098076.1), which was cloned in front of green fluorescent protein (GFP). A 3110 bp DNA fragment comprising 1292 bp upstream of the LEC1 translational start site and the entire LEC1 protein coding region was cloned in front of green fluorescent protein (GFP). These vectors were transformed to Arabidopsis ecotype Columbia (Col-0).
Control and C#3-treated cultures were examined at different time points in their development to determine the effect of C#3 on the course of somatic embryo development. Differences between the control and C#3-treated cultures were visible at about four days of culture. The epidermal and cortex cells of the root elongation zone and hypocotyl in the control seedlings increased in size, but not in the C#3-treated seedlings. On the sixth day of culture the differences between the two cultures was more pronounced. […] Callus was present on the tips of the cotyledons in circa 10% of the control seedlings, and up to 70% of the C#3 treated seedlings. This callus comprised loose, large cells on the outside, and smaller, denser cells on the on inside.
The timing and location of somatic embryo formation in control and compound-treated cultures was examined in more detail using two early embryo expressed marker genes, ENOD4-like (ENOD4L::GFP), and LEAFY COTYLEDON1 (LEC1::LEC1:GFP). Expression of ENOD4L::GFP and LEC1:GFP in zygotic embryos was observed from the zygote- and two-celled embryo proper stage onward, respectively. […] The GFP-positive sectors increased in size over the next few days, and on the sixth day of culture, GFP-positive globular embryos could be distinguished. The only difference between the C#3-treated and control cultures with respect to embryo marker expression was the number of seedlings displaying GFP fluorescence, which was higher in the C#3-treated cultures.

Arabidopsis seedlings [3] = assay: NAA induced somatic embryogenesis with or without C#3
Protocol: The ability of C#3 to enhance embryogenesis in the presence of other auxins was tested; namely the synthetic auxin naphthalene-1-acetic acid (NAA). […] C#3 therefore enhances the developmental responses that are activated by auxin treatment. Compound C#3 is therefore able to potentiate the effect of other auxins.

Arabidopsis seedlings [4] = assay: Somatic embryo formation at 0 to 2 μM 2,4-D with or without C#3
Text: 2,4-D is widely used to induce somatic embryogenesis from plant explant. In Arabidopsis immature zygotic embryos occasionally form somatic embryos when grown in basal medium, while germinating embryos or other vegetative tissues are unable to form embryos. […] Compound #3 therefore potentiates the effect of auxin 2,4-D. As shown in the micrograph in FIG. 7B, at the lowest effective concentration of C#3, areas of dense, light green embryogenic tissue (arrows) were formed, rather than histodifferentiated, bipolar somatic embryos.

[5] = 25 μM compound, 1 μM 2,4-D, FIG. 1

O=C(O)COc1ccc(Cl)cc1Cl [2,4-D, 2,4 dichlorophenoxyacetic acid, reference compound]
seeds forming somatic embryos (Arabidopsis seedlings [1]; 1 μM 2,4-D alone, Col0, circa 30 seeds in 30 ml medium): approximately 18%

Cc1ccccc1N(C)S(=O)(=O)c1ccc(Cl)cc1 [C#3, 4-chloro-N-methyl-N-(2-methylphenyl)benzenesulfonamide]
level of SE, percentage of seedlings with somatic embryos, compared to control of 1 μM 2,4-D alone (Arabidopsis seedlings [1]; [5]): significantly increases the level of SE | potency as inducer of SE (Arabidopsis seedlings [1]; [5]): particularly potent inducers | seedlings with somatic embryo development (Arabidopsis seedlings [1]; 10 to 50 μM C#3, 1 μM 2,4-D, control circa 20%): approximately 70% | number of somatic embryo-producing seedlings in different Arabidopsis ecotypes (Arabidopsis seedlings [1]; ecotypes other than Col0): enhanced the number of somatic embryo-producing seedlings | rank of percentage of seedlings with somatic embryos among screened compounds (Arabidopsis seedlings [1]; in presence of 2,4-D): induced the highest percentage of seedlings with somatic embryos | level of SE with increasing concentrations of compound (Arabidopsis seedlings [1]; none to 50 μM, fixed 1 μM 2,4-D, FIG. 5): increases the level of SE | time of addition giving best response (germinating seeds; 25 μM C#3, 1 μM 2,4-D, scored after two weeks, FIG. 6): within the first two days of culture | enhancement of somatic embryogenesis on late addition (germinating seeds; 25 μM C#3 added after four days of culture): reached control levels | number of seedlings displaying GFP fluorescence versus control (Arabidopsis seedlings [2]; embryo marker expression): higher | first detection of ENOD4L::GFP and LEC1:GFP marker expression (Arabidopsis seedlings [2]; region of the shoot meristem): starting from day four of culture | callus formation in root/hypocotyl region (Arabidopsis seedlings [2]; sixth day of culture): formed a large, connected mass of vascular-derived callus | cell loosening and detachment in hypocotyl and root (Arabidopsis seedlings [2]; sixth day of culture): to a lesser extent than the control | seedlings with callus on the tips of the cotyledons (Arabidopsis seedlings [2]; sixth day of culture, control circa 10%): up to 70% | number of embryogenic seedlings compared to control cultures (Arabidopsis seedlings [2]; tenth day of culture): much higher | effect on NAA induced somatic embryogenesis (Arabidopsis seedlings [3]; 25 μM C#3 with 10 μM NAA): enhanced | somatic embryo formation in the absence of 2,4-D (Arabidopsis seedlings [4]; 25 μM C#3, no 2,4-D, FIG. 7A): not able to induce somatic embryo formation | somatic embryo formation at all tested 2,4-D concentrations (Arabidopsis seedlings [4]; 25 μM C#3, up to 2 μM 2,4-D): did enhance somatic embryo formation

O=C(O)Cc1cccc2ccccc12 [NAA, naphthalene-1-acetic acid, reference compound]
frequency of somatic embryogenesis with NAA alone (Arabidopsis seedlings [3]; 10 μM NAA, FIG. 8): induced a low frequency of somatic embryogenesis
